Results: patent US9701689B2, “Substituted pyridines and pyridazines as CCR10 receptor inhibitors” (KYOWA HAKKO KIRIN CO., LTD., priority 2012, dated 2017)

Biological target: T1, human CCR10 (Homo sapiens, UniProt P46092)
T1 construct: expressed in transfected cells; host or cells: KJMGER8 cells (Namalwa cell-derived line), beta-estradiol-induced; hCCR10G16 cells
T1 sequence (P46092 1-362): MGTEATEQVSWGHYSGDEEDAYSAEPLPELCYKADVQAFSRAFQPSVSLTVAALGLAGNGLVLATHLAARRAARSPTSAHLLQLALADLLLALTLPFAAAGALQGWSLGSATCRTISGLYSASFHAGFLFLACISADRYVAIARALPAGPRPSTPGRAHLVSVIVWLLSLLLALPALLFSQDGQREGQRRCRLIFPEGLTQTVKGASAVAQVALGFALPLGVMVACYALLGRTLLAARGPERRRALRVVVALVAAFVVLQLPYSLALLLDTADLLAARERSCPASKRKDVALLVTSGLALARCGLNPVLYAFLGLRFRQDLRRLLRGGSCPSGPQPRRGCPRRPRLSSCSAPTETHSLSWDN
Assay: CCR10 antagonistic effect: calcium assay of human CCR10 (CTACK-induced increase of intracellular calcium in hCCR10G16 cells)
Format: cell-based
Settings: at a concentration of not more than 1000 nmol/L; human CCR10-expressing hCCR10G16 cells, 300 nmol/L CTACK added; read-out: inhibition of increase in the calcium ion concentration
Method: [Experimental Example 1] CCR10 Antagonistic Effect
(1) Preparation of Human CCR10-Inducible Expression Plasmid
A CCR10-inducible expression plasmid was prepared according to a known method [Analytical Biochemistry, 2006, vol. 400, page 163]. A DNA encoding human CCR10 was obtained by PCR. Using human chromosome DNA (100 ng; manufactured by Clontech) as a template, synthetic DNA having the sequences depicted in SEQ ID NOs: 1 and 2 as a human CCR10 cDNA specific primer, and Pyrobest DNA Polymerase (manufactured by TAKARA SHUZO CO. LTD.) as an enzyme, a DNA encoding human CCR10 was obtained by PCR. As a buffer for PCR, the buffer attached to the enzyme to be used, which was diluted 10-fold with deionized water, was used. Using Thermal Cycler DNA Engine (manufactured by MJ Research), PCR was performed by 35 cycles of reactions composed of an incubation at 94° C. for 30 sec, at an anneal temperature of 58° C. for 30 sec, and at 72° C. for 1 min after treating at 90° C. for 2 min.
The amplified PCR fragment was cleaved with HindIII and NotI, then a human CCR10 DNA fragment was recovered by the agarose gel electrophoresis method. The fragment was incorporated between the corresponding restriction enzyme sites (HindIII-NotI) of an inducible expression vector to construct a human CCR10-inducible expression plasmid.
Using a primer specific to the sequence of plasmid (synthetic DNA having the sequences shown in SEQ ID NOs: 3 and 4), the sequence of human CCR10 DNA region was determined. For the determination of the base sequence, DNA Sequencer 377 (manufactured by Perkin Elmer. Co.) and a reaction kit (ABI Prism (registered trade mark) BigDye (registered trade mark) Terminator Cycle Sequencing Ready Reaction kit: manufactured by Applied Biosystems) were used. The sequence of human CCR10 DNA was identical with the sequence (NM 016602) registered in GenBank.
(2) Preparation of Human CCR10 Expressing Cell for Calcium Assay
Cells for detecting signals from human CCR10 in calcium assay were prepared. According to a known method [Analytical.Biochemistry (Analy Biochem), 2006, vol. 400, page 163], human CCR10-inducible expressing cells whose host cell is KJMGER8 cell (Namalwa cell-derived cell line) were prepared. Human CCR10-inducible expression plasmid produced above and Gα16 expression plasmid were co-transfected into the KJMGER8 cells by the electroporation method [Cytotechnology, 1990, vol. 3, page 133], whereby the signals from human CCR10 could be detected by calcium assay (hereinafter to be referred to as hCCR10G16 cell). A Ga16 expression plasmid was produced by incorporating human Ga16 DNA into expression vector pAMoh (WO 03/087366). Expression of human CCR10 was induced by cultivating hCCR10G16 cells in the presence of 10 nmol/L β-estradiol (manufactured by Sigma Ltd.) for 24 hr.
(3) Calcium Assay of Human CCR10
Cells expressing human CCR10 induced by the above-mentioned method were suspended in RPMI1640 medium (manufactured by Invitrogen), and adjusted to a cell density of 2×10^6 cells/mL. The cells were blended with an equivalent volume of a loading buffer prepared according to the attached protocol of Fluo-3 calcium assay kit (manufactured by Molecular Devices Corporation), and incubated at 37° C. for several dozen minutes. This mixture was dispensed to a 384 well clear-bottom plate (manufactured by Corning Incorporated) at 40 μL/well. To this plate was added a solution of the test compound in dimethyl sulfoxide (DMSO), which was diluted 37-fold with RPMI1640 medium, at 5 μL/well, and the mixture was incubated at 37° C. for 30 min. 300 nmol/L human recombinant CTACK (manufactured by R&D Systems, Inc.) diluted with RPMI1640 medium containing 1 w/v % bovine serum albumin (manufactured by Sigma Ltd.) was added at 5 μL/well and, variation of intracellular calcium ion concentration for about 5 min after the addition was measured by a screening apparatus (FDSS; manufactured by Hamamatsu Photonics K.K.). […]

Structure (SMILES) | inhibition at up to 1 µM [%]
Cc1cc(Nc2cc(S(N)(=O)=O)ncc2C(=O)N2CCC(c3ccc(F)cc3)CC2)c(Cl)cc1Cl [Compound 51, 4-(2,4-dichloro-5-methylphenylamino)-5-[4-(4-fluorophenyl)piperidine-1-carbonyl]pyridine-2-sulfonamide] | ≥ 50
Cc1cc(Nc2cc(S(N)(=O)=O)ncc2C(=O)N2CCC(c3ccc(F)cc3)CC2)c(Cl)cc1F [Compound 52, 4-(2-chloro-4-fluoro-5-methylphenylamino)-5-[4-(4-fluorophenyl)piperidine-1-carbonyl]pyridine-2-sulfonamide] | ≥ 50
Cc1ccc(C)c(Nc2cc(S(N)(=O)=O)ncc2C(=O)N2CCC(c3ccc(F)cc3)CC2)c1 [Compound 53, 4-(2,5-dimethylphenylamino)-5-[4-(4-fluorophenyl)piperidine-1-carbonyl]pyridine-2-sulfonamide] | ≥ 50
Cc1ccc(Nc2cc(S(N)(=O)=O)ncc2C(=O)N2CCC(c3ccc(F)cc3)CC2)c(C)c1 [Compound 55, 4-(2,4-dimethylphenylamino)-5-[4-(4-fluorophenyl)piperidine-1-carbonyl]pyridine-2-sulfonamide] | ≥ 50
Cc1ccc(Nc2cc(S(N)(=O)=O)ncc2C(=O)N2CCC(c3ccc(F)cc3)CC2)c(F)c1 [Compound 56, 4-(2-fluoro-4-methylphenylamino)-5-[4-(4-fluorophenyl)piperidine-1-carbonyl]pyridine-2-sulfonamide] | ≥ 50
Cc1c(Cl)cccc1Nc1cc(S(N)(=O)=O)ncc1C(=O)N1CCC(c2ccc(F)cc2)CC1 [Compound 57, 4-(3-chloro-2-methylphenylamino)-5-[4-(4-fluorophenyl)piperidine-1-carbonyl]pyridine-2-sulfonamide] | ≥ 50
Cc1ccc(Nc2cc(S(N)(=O)=O)ncc2C(=O)N2CCC(c3ccc(F)cc3)CC2)c(Cl)c1 [Compound 58, 4-(2-chloro-4-methylphenylamino)-5-[4-(4-fluorophenyl)piperidine-1-carbonyl]pyridine-2-sulfonamide] | ≥ 50
Cc1c(Nc2cc(S(N)(=O)=O)ncc2C(=O)N2CCC(c3ccc(F)cc3)CC2)ccc(Cl)c1F [Compound 59, 4-(4-chloro-3-fluoro-2-methylphenylamino)-5-[4-(4-fluorophenyl)piperidine-1-carbonyl]pyridine-2-sulfonamide] | ≥ 50
Cc1c(F)cccc1Nc1cc(S(N)(=O)=O)ncc1C(=O)N1CCC(c2ccc(F)cc2)CC1 [Compound 60, 4-(3-fluoro-2-methylphenylamino)-5-[4-(4-fluorophenyl)piperidine-1-carbonyl]pyridine-2-sulfonamide] | ≥ 50
Cc1c(Nc2cc(S(N)(=O)=O)ncc2C(=O)N2CCC(c3ccc(F)cc3)CC2)cccc1C(F)(F)F [Compound 61, 5-[4-(4-fluorophenyl)piperidine-1-carbonyl]-4-[2-methyl-3-(trifluoromethyl)phenylamino]pyridine-2-sulfonamide] | ≥ 50
Cc1ccc(F)cc1Nc1cc(S(N)(=O)=O)ncc1C(=O)N1CCC(c2ccc(F)cc2)CC1 [Compound 62, 4-(5-fluoro-2-methylphenylamino)-5-[4-(4-fluorophenyl)piperidine-1-carbonyl]pyridine-2-sulfonamide] | ≥ 50
Cc1ccc(Nc2cc(S(N)(=O)=O)ncc2C(=O)N2CCC(c3ccc(F)cc3)CC2)cc1F [Compound 64, 4-(3-fluoro-4-methylphenylamino)-5-[4-(4-fluorophenyl)piperidine-1-carbonyl]pyridine-2-sulfonamide] | ≥ 50
Cc1cccc(Nc2cc(S(N)(=O)=O)ncc2C(=O)N2CCC(c3ccc(F)cc3)CC2)c1C [Compound 65, 4-(2,3-dimethylphenylamino)-5-[4-(4-fluorophenyl)piperidine-1-carbonyl]pyridine-2-sulfonamide] | ≥ 50
